Experimental data as given in patent US9975878B2, “Substituted triazine BMI-1 inhibitors” (PTC Therapeutics, Inc., priority 2013, dated 2018).

test system: Bmi-1 protein; assay: Sandwich ELISA Assay: Bmi-1 protein level in HT-1080 cells treated with test compounds; type: cell-based
Method in brief: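 HT-1080 cells exposed to compounds (final DMSO 0.5%) for 40-48 h at 37° C, 5% CO2, then lysed. Bmi-1 quantified by sandwich ELISA (mouse anti-Bmi-1 capture, rabbit anti-Bmi-1 detection, HRP anti-rabbit, TMB), read at OD450 with OD570 reference, against recombinant GST-Bmi-1 standard curve (0-8000 pg/mL).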

Row | Compound | EC50 [nM]
1 | Cc1nc2cc(Cl)ccc2n1-c1nc(N)nc(Nc2ccc(C(F)(F)F)cc2)n1 [Cpd 74, 6-(5-chloro-2-methyl-1H-benzimidazol-1-yl)-N-[4-(trifluoromethyl)phenyl]-1,3,5-triazine-2,4-diamine] | 100 to 3000
2 | Fc1ccc2nc(C3CC3)n(-c3ncnc(Nc4ccc(C(F)(F)F)cc4)n3)c2c1 [Cpd 76, 4-(2-cyclopropyl-6-fluoro-1H-benzimidazol-1-yl)-N-[4-(trifluoromethyl)phenyl]-1,3,5-triazin-2-amine] | 100 to 3000
3 | CCc1nc2ncc(F)cc2n1-c1nc(N)nc(Nc2ccc(OC(F)F)cc2)n1 [Cpd 79, N-[4-(difluoromethoxy)phenyl]-6-(2-ethyl-6-fluoro-1H-imidazo[4,5-b]pyridin-1-yl)-1,3,5-triazine-2,4-diamine] | 10 to 100
4 | Cc1nc2cc(Cl)ccc2n1-c1nc(N)nc(Nc2ccc(OC(F)F)cc2)n1 [Cpd 80, 6-(5-chloro-2-methyl-1H-benzimidazol-1-yl)-N-[4-(difluoromethoxy)phenyl]-1,3,5-triazine-2,4-diamine] | 100 to 3000
5 | Cc1nc2ccc(Cl)cc2n1-c1nc(N)nc(Nc2ccc(OC(F)F)cc2)n1 [Cpd 81, 6-(6-chloro-2-methyl-1H-benzimidazol-1-yl)-N-[4-(difluoromethoxy)phenyl]-1,3,5-triazine-2,4-diamine] | 10 to 100
6 | CCc1nc2ncc(F)cc2n1-c1nc(N)nc(Nc2ccc(C(F)(F)F)cc2)n1 [Cpd 82, 6-(2-ethyl-6-fluoro-1H-imidazo[4,5-b]pyridin-1-yl)-N-[4-(trifluoromethyl)phenyl]-1,3,5-triazine-2,4-diamine] | 10 to 100
7 | Nc1nc(Nc2ccc(OC(F)F)cc2)nc(-n2c(C3CC3)nc3cc(F)c(F)cc32)n1 [Cpd 83, 6-(2-cyclopropyl-5,6-difluoro-1H-benzimidazol-1-yl)-N-[4-(difluoromethoxy)phenyl]-1,3,5-triazine-2,4-diamine] | 10 to 100
8 | CCc1nc2cc(F)c(F)cc2n1-c1nc(N)nc(Nc2ccc(OC(F)F)cc2)n1 [Cpd 84, N-[4-(difluoromethoxy)phenyl]-6-(2-ethyl-5,6-difluoro-1H-benzimidazol-1-yl)-1,3,5-triazine-2,4-diamine] | 10 to 100
9 | Nc1nc(Nc2ccc(C(F)(F)F)cc2)nc(-n2c(C3CC3)nc3c(F)cccc32)n1 [Cpd 85, 6-(2-cyclopropyl-4-fluoro-1H-benzimidazol-1-yl)-N-[4-(trifluoromethyl)phenyl]-1,3,5-triazine-2,4-diamine] | 10 to 100
10 | Nc1nc(Nc2ccc(OC(F)F)cc2)nc(-n2c(C3CC3)nc3c(F)cccc32)n1 [Cpd 86, 6-(2-cyclopropyl-4-fluoro-1H-benzimidazol-1-yl)-N-[4-(difluoromethoxy)phenyl]-1,3,5-triazine-2,4-diamine] | 10 to 100
11 | Nc1nc(Nc2ccc(OC(F)F)c(F)c2)nc(-n2c(C3CC3)nc3c(F)cccc32)n1 [Cpd 87, 6-(2-cyclopropyl-4-fluoro-1H-benzimidazol-1-yl)-N-[4-(difluoromethoxy)-3-fluorophenyl]-1,3,5-triazine-2,4-diamine] | 10 to 100
12 | Nc1nc(Nc2ccc(C(F)(F)F)cc2)nc(-n2c(C3CC3)nc3c(F)cc(F)cc32)n1 [Cpd 88, 6-(2-cyclopropyl-4,6-difluoro-1H-benzimidazol-1-yl)-N-[4-(trifluoromethyl)phenyl]-1,3,5-triazine-2,4-diamine] | 10 to 100
13 | Cc1nc2ccccc2n1-c1nc(N)nc(Nc2cccc(OC(F)F)c2)n1 [Cpd 93, N-[3-(difluoromethoxy)phenyl]-6-(2-methyl-1H-benzimidazol-1-yl)-1,3,5-triazine-2,4-diamine] | 100 to 3000
14 | Cc1nc2c(F)cccc2n1-c1nc(N)nc(Nc2ccc(C(F)(F)F)cc2)n1 [Cpd 95, 6-(4-fluoro-2-methyl-1H-benzimidazol-1-yl)-N-[4-(trifluoromethyl)phenyl]-1,3,5-triazine-2,4-diamine] | 100 to 3000
15 | Cc1nc2c(F)cccc2n1-c1nc(N)nc(Nc2ccc(OC(F)F)c(F)c2)n1 [Cpd 97, N-[4-(difluoromethoxy)-3-fluorophenyl]-6-(4-fluoro-2-methyl-1H-benzimidazol-1-yl)-1,3,5-triazine-2,4-diamine] | 100 to 3000
16 | CCc1nc2ccccc2n1-c1nncc(Nc2ccc(C(F)(F)F)cc2)n1 [Cpd 98, 3-(2-ethyl-1H-benzimidazol-1-yl)-N-[4-(trifluoromethyl)phenyl]-1,2,4-triazin-5-amine] | 10 to 100
17 | CCc1nc2ccccc2n1-c1nncc(Nc2ccc(OC(F)F)cc2)n1 [Cpd 100, N-[4-(difluoromethoxy)phenyl]-3-(2-ethyl-1H-benzimidazol-1-yl)-1,2,4-triazin-5-amine] | 10 to 100
18 | FC(F)(F)c1ccc(Nc2cnnc(-n3c(C4CC4)nc4ccccc43)n2)cc1 [Cpd 101, 3-(2-cyclopropyl-1H-benzimidazol-1-yl)-N-[4-(trifluoromethyl)phenyl]-1,2,4-triazin-5-amine] | 10 to 100
19 | Nc1nc(Nc2ccc(OC(F)F)nc2)nc(-n2c(CF)nc3ccccc32)n1 [Cpd 110, N-[6-(difluoromethoxy)pyridin-3-yl]-6-[2-(fluoromethyl)-1H-benzimidazol-1-yl]-1,3,5-triazine-2,4-diamine] | 100 to 3000
20 | Cc1nc2ccccc2n1-c1cnnc(Nc2ccc(C(F)(F)F)cc2)n1 [Cpd 112, 5-(2-methyl-1H-benzimidazol-1-yl)-N-[4-(trifluoromethyl)phenyl]-1,2,4-triazin-3-amine] | 100 to 3000
21 | FC(F)Oc1ccc(Nc2cnnc(-n3c(C4CC4)nc4ccccc43)n2)cc1 [Cpd 113, 3-(2-cyclopropyl-1H-benzimidazol-1-yl)-N-[4-(difluoromethoxy)phenyl]-1,2,4-triazin-5-amine] | 10 to 100
22 | Nc1nc(Nc2ccc(C(F)(F)F)cc2)nc(-n2c(C(F)F)nc3cc(F)c(F)cc32)n1 [Cpd 114, 6-[2-(difluoromethyl)-5,6-difluoro-1H-benzimidazol-1-yl]-N-[4-(trifluoromethyl)phenyl]-1,3,5-triazine-2,4-diamine] | 100 to 3000
23 | Nc1nc(Nc2ccc(OC(F)F)cc2)nc(-n2c(C(F)F)nc3cc(F)c(F)cc32)n1 [Cpd 115, N-[4-(difluoromethoxy)phenyl]-6-[2-(difluoromethyl)-5,6-difluoro-1H-benzimidazol-1-yl]-1,3,5-triazine-2,4-diamine] | 10 to 100

Second part, the molecule after the results:

Row | EC50 [nM] | Compound
24 | 10 to 100 | Nc1nc(Nc2ccc(OC(F)F)cc2)nc(-c2c(C(F)(F)F)nc3ccc(F)cn23)n1 [Cpd 73, N-[4-(difluoromethoxy)phenyl]-6-[6-fluoro-2-(trifluoromethyl)imidazo[1,2-a]pyridin-3-yl]-1,3,5-triazine-2,4-diamine]
25 | 10 to 100 | Cc1nc2ccc(Cl)cc2n1-c1nc(N)nc(Nc2ccc(C(F)(F)F)cc2)n1 [Cpd 75, 6-(6-chloro-2-methyl-1H-benzimidazol-1-yl)-N-[4-(trifluoromethyl)phenyl]-1,3,5-triazine-2,4-diamine]
26 | 10 to 100 | Nc1nc(Nc2ccc(OC(F)F)cc2)nc(-n2c(C3CC3)nc3ncc(F)cc32)n1 [Cpd 77, 6-(2-cyclopropyl-6-fluoro-1H-imidazo[4,5-b]pyridin-1-yl)-N-[4-(difluoromethoxy)phenyl]-1,3,5-triazine-2,4-diamine]
27 | 100 to 3000 | Cc1nc2ncc(F)cc2n1-c1nc(N)nc(Nc2ccc(OC(F)F)cc2)n1 [Cpd 78, N-[4-(difluoromethoxy)phenyl]-6-(6-fluoro-2-methyl-1H-imidazo[4,5-b]pyridin-1-yl)-1,3,5-triazine-2,4-diamine]
28 | 100 to 3000 | Cc1nc2ccccc2n1-c1nncc(Nc2ccc(C(F)(F)F)cc2)n1 [Cpd 94, 3-(2-methyl-1H-benzimidazol-1-yl)-N-[4-(trifluoromethyl)phenyl]-1,2,4-triazin-5-amine]
29 | 10 to 100 | Cc1nc2c(F)cccc2n1-c1nc(N)nc(Nc2ccc(OC(F)F)cc2)n1 [Cpd 96, N-[4-(difluoromethoxy)phenyl]-6-(4-fluoro-2-methyl-1H-benzimidazol-1-yl)-1,3,5-triazine-2,4-diamine]
30 | 10 to 100 | Cc1nc2ccccc2n1-c1nncc(Nc2ccc(OC(F)F)cc2)n1 [Cpd 99, N-[4-(difluoromethoxy)phenyl]-3-(2-methyl-1H-benzimidazol-1-yl)-1,2,4-triazin-5-amine]
31 | 10 to 100 | Nc1nc(Nc2ccc(OC(F)F)nc2)nc(-n2c(C(F)F)nc3ccccc32)n1 [Cpd 105, N-[6-(difluoromethoxy)pyridin-3-yl]-6-[2-(difluoromethyl)-1H-benzimidazol-1-yl]-1,3,5-triazine-2,4-diamine]
32 | 100 to 3000 | Nc1nc(Nc2ccc(C(F)(F)F)cc2)nc(-n2c(CF)nc3ccccc32)n1 [Cpd 107, 6-[2-(fluoromethyl)-1H-benzimidazol-1-yl]-N-[4-(trifluoromethyl)phenyl]-1,3,5-triazine-2,4-diamine]
33 | 100 to 3000 | CCc1nc2cc(F)c(F)cc2n1-c1nc(N)nc(Nc2ccc(C(F)(F)F)cc2)n1 [Cpd 116, 6-(2-ethyl-5,6-difluoro-1H-benzimidazol-1-yl)-N-[4-(trifluoromethyl)phenyl]-1,3,5-triazine-2,4-diamine]
34 | 100 to 3000 | Nc1nc(Nc2ccc(OC(F)F)c(F)c2)nc(-n2c(C(F)F)nc3cc(F)c(F)cc32)n1 [Cpd 117, N-[4-(difluoromethoxy)-3-fluorophenyl]-6-[2-(difluoromethyl)-5,6-difluoro-1H-benzimidazol-1-yl]-1,3,5-triazine-2,4-diamine]
35 | 100 to 3000 | Nc1nc(Nc2ccc(C(F)(F)F)cc2)nc(-n2c(CO)nc3ccccc32)n1 [Cpd 118, [1-(4-amino-6-{[4-(trifluoromethyl)phenyl]amino}-1,3,5-triazin-2-yl)-1H-benzimidazol-2-yl]methanol]
36 | 100 to 3000 | N#CCc1nc2ccccc2n1-c1nc(N)nc(Nc2ccc(C(F)(F)F)cc2)n1 [Cpd 119, [1-(4-amino-6-{[4-(trifluoromethyl)phenyl]amino}-1,3,5-triazin-2-yl)-1H-benzimidazol-2-yl]acetonitrile]
37 | 100 to 3000 | Nc1nc(Nc2ccc(OC(F)F)cc2)nc(-n2c(CO)nc3ccccc32)n1 [Cpd 120, [1-(4-amino-6-{[4-(difluoromethoxy)phenyl]amino}-1,3,5-triazin-2-yl)-1H-benzimidazol-2-yl]methanol]
